# Assay results taken from ChEMBL document CHEMBL1151130, “Oxygenated Furanosesterterpene Tetronic Acids from a Sponge of the Genus Ircinia” (J Nat Prod, 1988).
# The source made the active and inactive calls. The rule behind the calls is not given here.
# Assays:
# [1] = test system: Human alphaherpesvirus 1; assay: Antiviral activity against HSV1 infected in […] cells at 2 ug/disk; format: functional, organism-based
# [2] = test system: Poliovirus 1; assay: Antiviral activity against Poliovirus type 1 infected in […] cells at 2 ug/disk; format: functional, organism-based
# [3] = test system: Poliovirus 1; assay: Antiviral activity against Poliovirus type 1 infected in […] cells at 20 ug/disk; format: functional, organism-based
# [4] = test system: Human alphaherpesvirus 1; assay: Antiviral activity against HSV1 infected in […] cells at 20 ug/disk; format: functional, organism-based
# [5] = Cytotoxicity against […] cells at 2 ug/disk; format: cell-based
Structure (SMILES),Activity [1],Activity [2],Activity [3],Activity [4],Activity [5]
COC1=C(C)C(=O)O/C1=C\[C@@H](C)CCC/C(C)=C/C/C=C(\C)CCC(=O)c1ccoc1,inactive,inactive,,,
COC1=C(C)C(=O)O/C1=C\[C@@H](C)CCC/C(C)=C/CC/C(C)=C/CC(=O)c1ccoc1,inactive,inactive,,,
COC1=C(C)C(=O)O/C1=C\[C@@H](C)CCC/C(C)=C/CC/C(C)=C/CCc1ccoc1,,,inactive,inactive,
CC1=C(O)/C(=C/[C@@H](C)CCC/C(C)=C/CC/C(C)=C/CCc2ccoc2)OC1=O,,,,,Toxic
CC1=C(O)/C(=C/[C@@H](C)CCC/C(C)=C/CCC(C)(O)CCCc2ccoc2)OC1=O (stereo partly drawn),,,inactive,inactive,
C=C(CC/C=C(\C)CCC(=O)c1ccoc1)CCC[C@H](C)/C=C1\OC(=O)C(C)=C1OC,inactive,inactive,,,
COC1=C(C)C(=O)O/C1=C\[C@@H](C)CCC/C(C)=C/CCC(C)(O)CCCc1ccoc1 (stereo partly drawn),,,inactive,inactive,
